Assay results as given in ChEMBL document CHEMBL2331154 (J Med Chem, 2013).
Active and inactive are the calls of the source. The rule behind the calls is not given here.

What was measured:
[1] = biological target: T1, Heat shock protein HSP 90-alpha (Homo sapiens, UniProt P07900); assay: Binding affinity to recombinant Hsp90 alpha (unknown origin) by surface plasmon resonance
[2] = biological target: T1, Heat shock protein HSP 90-alpha; assay: Inhibition of Hsp90 alpha (unknown origin) ATPase activity after 60 mins by fluorimetry
HeLa [3] = assay: Cytotoxicity against human HeLa cells assessed as cell viability up to 100 uM after 24 hrs by MTT assay; type: cell-based
[4] = biological target: T1, Heat shock protein HSP 90-alpha; assay: Inhibition of Hsp90 alpha (unknown origin) assessed as thermal-induced citrate synthase aggregation at 4 fold molar excess by fluorimetry
[5] = biological target: T1, Heat shock protein HSP 90-alpha; assay: Inhibition of Hsp90 alpha in human HeLa cells assessed as reduction in ERK1/ERK2 level at 50 uM after 24 hrs by Western blot analysis; type: cell-based
HeLa [6] = assay: Increase in Hsp70 level in human HeLa cells at 50 uM after 24 hrs by Western blot analysis; type: functional, cell-based
[7] = biological target: T1, Heat shock protein HSP 90-alpha; assay: Inhibition of Hsp90 alpha (unknown origin) assessed as thermal-induced citrate synthase aggregation at 0.3 uM by fluorimetry relative to control
[8] = biological target: T1, Heat shock protein HSP 90-alpha; assay: Inhibition of Hsp90 alpha in human HeLa cells assessed as reduction in p-AKT level at 50 uM after 24 hrs by Western blot analysis; type: cell-based

| Kd ([1]; read-out: Kd) [nM] | SMILES | Kd [1] | other results |
| --- | --- | --- | --- |
| – | O=C(OC[C@H]1O[C@@H](O[C@@H]2C[C@@]3(O)CO[C@H]4OCC[C@@H]2[C@H]43)[C@H](O)[C@@H](O)[C@@H]1O)c1ccc(O)cc1 | Not Active | – |
| 31 | O=C(O[C@@H]1C[C@@](O)(CO)[C@H]2[C@H](O[C@@H]3O[C@H](CO)[C@@H](O)[C@H](O)[C@H]3O)OC=C[C@H]21)c1ccc(O)cc1 | – | – |
| – | CO[C@H]1C[C@@H]2[C@@H]3[C@@H](OC[C@]3(O)C[C@H]2OC(=O)c2ccc(O)cc2)O1 | Not Active | – |
| – | COc1cc(/C=C/C(=O)O[C@H]2[C@@H]3C=CO[C@@H](O[C@@H]4O[C@H](CO)[C@@H](O)[C@H](O)[C@H]4O)[C@@H]3[C@@]3(CO)O[C@@H]23)ccc1O | Not Active | – |
| – | O[C@@H]1C[C@@]2(O)CO[C@H]3OCC[C@@H]1[C@H]32 | Not Active | – |
| – | O=C(O[C@@H]1C=C(CO)[C@@H]2[C@H](O[C@@H]3O[C@H](CO)[C@@H](O)[C@H](O)[C@H]3O)OC=C[C@@H]21)c1ccc(O)cc1 | Not Active | – |
| – | COc1cc(/C=C/C(=O)O[C@@H]2C[C@@](O)(CO)[C@H]3[C@H](O[C@@H]4O[C@H](CO)[C@@H](O)[C@H](O)[C@H]4O)OC=C[C@H]32)ccc1O | Not Active | – |
| – | O=C(O[C@@H]1C[C@@]2(O)CO[C@@H]3CC1C2[C@H](O[C@@H]1O[C@H](CO)[C@@H](O)[C@H](O)[C@H]1O)O3)c1ccc(O)cc1 | Not Active | – |
| 16 | O=C(O[C@H]1[C@@H]2CCO[C@@H](O[C@@H]3O[C@H](CO)[C@@H](O)[C@H](O)[C@H]3O)[C@@H]2[C@@]2(CO)O[C@@H]12)c1ccc(O)cc1 | – | – |
| 139 | O=C(OC[C@H]1O[C@@H](O[C@@H]2OC=C[C@@H]3[C@H]2[C@](O)(CO)C[C@H]3OC(=O)c2ccc(O)cc2)[C@H](O)[C@@H](O)[C@@H]1O)c1ccc(O)cc1 | – | – |
| – | COc1ccc(C=CC(=O)O[C@@H]2C[C@@](O)(CO)[C@H]3[C@H](O[C@@H]4O[C@H](CO)[C@@H](O)[C@H](O)[C@H]4O)OC=C[C@H]32)cc1O (mixture of isomers) | Not Active | – |
| – | O=C(C=Cc1ccc(O)cc1)O[C@@H]1C[C@@](O)(CO)[C@H]2[C@H](O[C@@H]3O[C@H](CO)[C@@H](O)[C@H](O)[C@H]3O)OC=C[C@H]21 (mixture of isomers) | Not Active | – |
| – | COc1ccc(C=CC(=O)O[C@@H]2C[C@@](O)(CO)[C@H]3[C@H](O[C@@H]4O[C@H](CO)[C@@H](O)[C@H](O)[C@H]4O)OC=C[C@H]32)cc1 (mixture of isomers) | Not Active | – |
| – | C[C@H]1[C@H]2[C@H](O[C@@H]3O[C@H](CO)[C@@H](O)[C@H](O)[C@H]3O)OC[C@](C)(O)[C@H]2C[C@@H]1O [ADENOSMOSIDE] | Not Active | – |
| 14 | O=C(O[C@H]1[C@@H]2C=CO[C@@H](O[C@@H]3O[C@H](CO)[C@@H](O)[C@H](O)[C@H]3O)[C@@H]2[C@@]2(CO)O[C@@H]12)[C@H]1[C@H](C(=O)O[C@H]2[C@@H]3C=CO[C@@H](O[C@@H]4O[C@H](CO)[C@@H](O)[C@H](O)[C@H]4O)[C@@H]3[C@@]3(CO)O[C@@H]23)[C@@H](c2ccc(O)cc2)[C@@H]1c1ccc(O)cc1 [ARGENTEOSIDE A] | – | inhibition [2]: Dose-dependent effect; Activity (HeLa [3]): Non-toxic; inhibition [4]: Active; inhibition [5]: Active; Activity (HeLa [6]): inactive; inhibition [7]: Active; inhibition [8]: Active |
| 50 | O=C(O[C@H]1[C@@H]2C=CO[C@@H](O[C@@H]3O[C@H](CO)[C@@H](O)[C@H](O)[C@H]3O)[C@@H]2[C@@]2(CO)O[C@@H]12)[C@H]1[C@H](c2ccc(O)cc2)[C@H](C(=O)O[C@H]2[C@@H]3C=CO[C@@H](O[C@@H]4O[C@H](CO)[C@@H](O)[C@H](O)[C@H]4O)[C@@H]3[C@@]3(CO)O[C@@H]23)[C@H]1c1ccc(O)cc1 [ARGENTEOSIDE B] | – | inhibition [2]: Dose-dependent effect |
| 5920 | O=C(O[C@@H]1C[C@@]2(O)CO[C@H]3O[C@H](O)C[C@@H]1[C@H]32)c1ccc(O)cc1 [CATALPIN] | – | – |
| 12 | O=C(O[C@H]1[C@@H]2C=CO[C@@H](O[C@@H]3O[C@H](CO)[C@@H](O)[C@H](O)[C@H]3O)[C@@H]2[C@@]2(CO)O[C@@H]12)c1ccc(O)cc1 [CATALPOSIDE] | – | inhibition [2]: Dose-dependent effect |
| – | COc1cc(C(=O)O[C@H]2[C@@H]3C=CO[C@@H](O[C@@H]4O[C@H](CO)[C@@H](O)[C@H](O)[C@H]4O)[C@@H]3[C@@]3(CO)O[C@@H]23)ccc1O [PICROSIDE II] | Not Active | – |
| 2390 | O[C@H]1[C@@H]2CCO[C@@H]3OC[C@@](O)([C@@H]32)[C@@H]1O [REHMAGLUTIN A] | – | – |
| – | C=C[C@H]1[C@H](O[C@@H]2O[C@H](CO)[C@@H](O)[C@H](O)[C@H]2O)OC=C(C(=O)OC)[C@H]1CC=O [SECOLOGANIN] | Not Active | – |
| 26 | O=C(/C=C/c1ccc(O)cc1)O[C@H]1[C@@H]2C=CO[C@@H](O[C@@H]3O[C@H](CO)[C@@H](O)[C@H](O)[C@H]3O)[C@@H]2[C@@]2(CO)O[C@@H]12 [SPECIOSIDE] | – | inhibition [2]: Dose-dependent effect |
| – | O=C(/C=C/c1ccc(O)cc1)O[C@H]1[C@@H]2C=CO[C@@H](O[C@@H]3O[C@H](CO)[C@@H](O)[C@H](O)[C@H]3O)[C@@H]2[C@@](O)(CO)[C@@H]1O [STEREOSPERMOSIDE] | Not Active | – |
| – | C=C[C@H]1[C@H](O[C@@H]2O[C@H](CO)[C@@H](O)[C@H](O)[C@H]2O)OC=C2C(=O)OCC[C@H]21 [SWEROSIDE] | Not Active | – |
| 348 | O=C(/C=C/c1ccc(O)c(O)c1)O[C@@H]1C2C=CO[C@H](O[C@@H]3O[C@H](CO)[C@@H](O)[C@H](O)[C@H]3O)C2[C@]2(CO)O[C@H]12 (stereo partly specified) [VERMINOSIDE] | – | – |

| SMILES | Kd ([1]; read-out: Kd) [nM] | Kd [1] | other results |
| --- | --- | --- | --- |
| O=C(/C=C\c1ccc(O)cc1)O[C@@H]1C[C@@](O)(CO)[C@H]2[C@H](O[C@@H]3O[C@H](CO)[C@@H](O)[C@H](O)[C@H]3O)OC=C[C@H]21 | 73 | – | – |
